pIC50: −log10 of the molar value.
Tests used:
Test in all cases: HDAC Enzyme Activity Assay
Histone deacetylase 6 = biological target: T1, Histone deacetylase 6 (Mus musculus, UniProt Q9Z2V5)
T1 sequence (Q9Z2V5 whole entry): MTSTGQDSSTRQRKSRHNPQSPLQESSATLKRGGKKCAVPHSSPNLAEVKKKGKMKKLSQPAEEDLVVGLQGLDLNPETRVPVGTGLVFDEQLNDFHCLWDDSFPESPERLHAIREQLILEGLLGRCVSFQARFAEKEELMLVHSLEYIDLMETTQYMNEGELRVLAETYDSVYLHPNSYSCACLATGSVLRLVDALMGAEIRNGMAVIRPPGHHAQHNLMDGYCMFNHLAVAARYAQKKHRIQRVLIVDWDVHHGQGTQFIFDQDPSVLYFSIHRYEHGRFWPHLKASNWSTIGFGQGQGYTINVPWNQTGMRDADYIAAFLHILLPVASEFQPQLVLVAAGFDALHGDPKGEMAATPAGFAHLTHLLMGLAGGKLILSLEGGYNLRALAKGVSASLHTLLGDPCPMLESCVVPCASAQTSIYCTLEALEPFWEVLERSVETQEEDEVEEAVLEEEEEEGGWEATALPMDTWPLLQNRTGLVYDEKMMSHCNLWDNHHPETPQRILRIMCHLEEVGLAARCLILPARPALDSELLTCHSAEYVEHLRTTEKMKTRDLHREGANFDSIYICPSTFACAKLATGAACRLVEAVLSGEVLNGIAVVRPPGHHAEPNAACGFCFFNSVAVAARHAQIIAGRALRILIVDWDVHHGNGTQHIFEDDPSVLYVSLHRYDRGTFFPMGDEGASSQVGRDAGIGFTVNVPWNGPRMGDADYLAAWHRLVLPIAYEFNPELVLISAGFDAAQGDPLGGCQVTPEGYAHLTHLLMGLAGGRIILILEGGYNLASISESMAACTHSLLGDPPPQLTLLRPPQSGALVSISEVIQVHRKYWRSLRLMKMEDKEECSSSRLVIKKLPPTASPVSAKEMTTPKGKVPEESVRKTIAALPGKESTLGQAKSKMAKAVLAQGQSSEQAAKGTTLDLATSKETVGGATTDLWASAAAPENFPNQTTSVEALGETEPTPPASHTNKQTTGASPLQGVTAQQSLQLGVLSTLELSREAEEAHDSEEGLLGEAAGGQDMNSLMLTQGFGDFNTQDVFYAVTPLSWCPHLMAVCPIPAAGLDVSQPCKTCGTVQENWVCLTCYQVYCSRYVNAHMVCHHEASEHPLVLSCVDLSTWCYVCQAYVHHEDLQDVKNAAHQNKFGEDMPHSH
Description: (§1) For the enzyme assay, 10 µL of the enzyme fraction was added to 1 µL of fluorescent substrate (2 mM Ac-KGLGK(Ac)-MCA) and 9 µL of histone deacetylase buffer, and the mixture was incubated at 37 °C for 30 min. The reaction was stopped by the addition of 30 µL of trypsin (20 mg/mL) and incubated at 37 °C for 15 min. The released amino methyl coumarin (AMC) was measured using a fluorescence plate reader. DTT was added simultaneously with drugs to the enzyme solutions

Histone deacetylase 1 = Histone deacetylase 1 (Homo sapiens, UniProt Q13547)
Description: as §1

Histone deacetylase 4 = Histone deacetylase 4 (Homo sapiens, UniProt P56524)
Description: as §1

Sequence of Histone deacetylase 4 (P56524 whole entry): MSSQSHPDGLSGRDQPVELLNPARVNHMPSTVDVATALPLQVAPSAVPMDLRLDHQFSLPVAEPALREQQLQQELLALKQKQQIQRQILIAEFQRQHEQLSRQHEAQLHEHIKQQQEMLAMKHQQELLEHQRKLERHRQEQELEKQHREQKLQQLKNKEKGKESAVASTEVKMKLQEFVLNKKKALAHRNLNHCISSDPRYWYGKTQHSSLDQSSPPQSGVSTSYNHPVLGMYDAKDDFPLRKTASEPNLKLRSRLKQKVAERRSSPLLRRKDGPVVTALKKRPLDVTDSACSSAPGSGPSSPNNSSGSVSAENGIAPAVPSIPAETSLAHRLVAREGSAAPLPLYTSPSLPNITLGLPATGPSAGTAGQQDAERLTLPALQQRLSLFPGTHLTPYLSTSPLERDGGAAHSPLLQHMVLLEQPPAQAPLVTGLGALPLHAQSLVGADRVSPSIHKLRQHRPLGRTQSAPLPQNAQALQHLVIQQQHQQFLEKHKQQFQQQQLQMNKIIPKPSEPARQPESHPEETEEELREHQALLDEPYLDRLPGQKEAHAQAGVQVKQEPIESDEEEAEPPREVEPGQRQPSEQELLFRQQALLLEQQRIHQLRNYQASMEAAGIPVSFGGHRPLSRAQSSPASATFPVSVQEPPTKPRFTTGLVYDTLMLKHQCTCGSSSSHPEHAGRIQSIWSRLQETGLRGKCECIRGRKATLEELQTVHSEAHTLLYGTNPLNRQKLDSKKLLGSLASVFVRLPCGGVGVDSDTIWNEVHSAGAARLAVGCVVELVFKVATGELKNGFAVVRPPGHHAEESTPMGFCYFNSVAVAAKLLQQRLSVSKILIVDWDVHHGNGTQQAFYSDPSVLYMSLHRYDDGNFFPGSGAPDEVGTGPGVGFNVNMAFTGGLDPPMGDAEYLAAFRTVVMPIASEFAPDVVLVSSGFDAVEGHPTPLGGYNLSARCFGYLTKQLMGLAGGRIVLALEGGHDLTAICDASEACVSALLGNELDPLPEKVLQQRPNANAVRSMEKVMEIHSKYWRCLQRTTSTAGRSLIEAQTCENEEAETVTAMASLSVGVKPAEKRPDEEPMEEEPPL
Sequence of Histone deacetylase 1 (Q13547 whole entry): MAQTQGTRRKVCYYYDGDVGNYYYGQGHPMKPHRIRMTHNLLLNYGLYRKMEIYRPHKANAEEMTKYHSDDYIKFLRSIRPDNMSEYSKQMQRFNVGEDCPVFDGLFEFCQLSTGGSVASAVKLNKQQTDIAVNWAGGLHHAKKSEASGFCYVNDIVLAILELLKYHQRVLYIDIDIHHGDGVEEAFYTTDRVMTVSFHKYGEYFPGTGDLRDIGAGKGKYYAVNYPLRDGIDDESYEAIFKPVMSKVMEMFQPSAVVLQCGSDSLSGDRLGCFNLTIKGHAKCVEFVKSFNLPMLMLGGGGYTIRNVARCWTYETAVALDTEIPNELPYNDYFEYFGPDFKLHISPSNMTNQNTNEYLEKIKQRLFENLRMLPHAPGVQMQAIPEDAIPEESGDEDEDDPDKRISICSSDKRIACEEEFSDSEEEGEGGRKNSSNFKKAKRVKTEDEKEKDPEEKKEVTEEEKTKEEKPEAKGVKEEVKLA

Compound | pIC50 (Histone deacetylase 6) | pIC50 (Histone deacetylase 1) | pIC50 (Histone deacetylase 4)
O=C(CCCCC[C@H](NC(=O)OCc1ccccc1)C(=O)Nc1cccc2cccnc12)NO [(S)-benzyl 8-(hydroxyamino)-1,8-dioxo-1-(quinolin-8-ylamino)octan-2-ylcarbamate] | 7.35 | 8.00 | 7.96
O=C(NC(CCCCCSSCCCCC[C@H](NC(=O)OCc1ccccc1)C(=O)Nc1cccc2cccnc12)C(=O)Nc1cccc2cccnc12)OCc1ccccc1 (stereo partly drawn) [(Z-L-Am7(S-)-QA)2 (4)] | 8.12 | 8.09 | 8.47
CC(=O)SCCCCC[C@H](NC(=O)OCc1ccccc1)C(=O)Nc1cccc2cccnc12 [Z-L-Am7(Ac)-QA (1)] | 7.47 | 7.33 | 7.74

Next, values leading:

pIC50 (Histone deacetylase 6) | pIC50 (Histone deacetylase 1) | pIC50 (Histone deacetylase 4) | Compound
7.54 | 7.72 | 7.74 | COCCOCC(=O)SCCCCC[C@H](NC(=O)OCc1ccccc1)C(=O)Nc1cccc2cccnc12 [Z-L-Am7(AcEtMe)-QA (2)]
8.49 | 8.31 | 8.70 | O=C(N[C@@H](CCCCCSSCCO)C(=O)Nc1cccc2cccnc12)OCc1ccccc1 [Z-L-Am7(betaMe)-QA (3)]
